Measured values published in PubChem BioAssay AID2060512 (Molecular Pharmacology Branch, DTP, NCI, 2025).

System: 186277-243-T-J2-PDC complex spheroid viability
Assay: Anticancer human tumor 186277-243-T-J2-PDC patient-derived colon adenocarcinoma cell line growth inhibition [GQUAD]
Details: for IC50: curve of first compound; for viability, T/C: stronger effect = lower value
Outline: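 Tumor cells were grown as complex spheroids with HUVEC endothelial cells and mesenchymal stem cells as stroma. G-quadruplex stabilizers were combined with targeted agents over half-log dilutions from near the clinical Cmax, or from 10 microM.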

[1] = second compound 0.0316 µM, first compound 0.0316 µM
[2] = second compound 0.0316 µM, first compound 0.1 µM
[3] = second compound 0.0316 µM, first compound 0.316 µM
[4] = second compound 0.0316 µM, first compound 1 µM
[5] = second compound 0.0316 µM, first compound 3.16 µM
[6] = second compound 0.0316 µM, first compound 10 µM
[7] = second compound 0.1 µM, first compound 0.0316 µM
[8] = second compound 0.1 µM, first compound 0.1 µM
[9] = second compound 0.1 µM, first compound 0.316 µM
[10] = second compound 0.1 µM, first compound 1 µM
[11] = second compound 0.1 µM, first compound 3.16 µM
[12] = second compound 0.1 µM, first compound 10 µM
[13] = second compound 0.316 µM, first compound 0.0316 µM
[14] = second compound 0.316 µM, first compound 0.1 µM
[15] = second compound 0.316 µM, first compound 0.316 µM
[16] = second compound 0.316 µM, first compound 1 µM
[17] = second compound 0.316 µM, first compound 3.16 µM
[18] = second compound 0.316 µM, first compound 10 µM
[19] = second compound 1 µM, first compound 0.0316 µM
[20] = second compound 1 µM, first compound 0.1 µM
[21] = second compound 1 µM, first compound 0.316 µM
[22] = second compound 1 µM, first compound 1 µM
[23] = second compound 1 µM, first compound 3.16 µM
[24] = second compound 1 µM, first compound 10 µM
[25] = second compound 3.16 µM, first compound 0.0316 µM
[26] = second compound 3.16 µM, first compound 0.1 µM
[27] = second compound 3.16 µM, first compound 0.316 µM
[28] = second compound 3.16 µM, first compound 1 µM
[29] = second compound 3.16 µM, first compound 3.16 µM
[30] = second compound 3.16 µM, first compound 10 µM
[31] = second compound 10 µM, first compound 0.0316 µM
[32] = second compound 10 µM, first compound 0.1 µM
[33] = second compound 10 µM, first compound 0.316 µM
[34] = second compound 10 µM, first compound 1 µM
[35] = second compound 10 µM, first compound 3.16 µM
[36] = second compound 10 µM, first compound 10 µM
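Further: spheroids exposed to drugs for 7 days.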
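Wherever viability, T/C is given: 100% = DMSO vehicle control viability.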

`CC1COCCN1c1cc(-c2ccnn2C)c2ccnc(-c3ccn[nH]3)c2n1` (stereo unspecified) + Cc1cnc(CNC(=O)c2c(=O)c3ccc(N4CCCN(C)CC4)nc3n3c2sc2ccccc23)cn1 showed an IC50 (second compound 0.0316 µM) of less than 0.0316 µM, an IC50 (second compound 0.1 µM) of less than 0.0316 µM and an IC50 (second compound 0.316 µM) of less than 0.0316 µM. It also gave an IC50 (second compound 1 µM) of less than 0.0316 µM, an IC50 (second compound 3.16 µM) of less than 0.0316 µM and an IC50 (second compound 10 µM) of less than 0.0316 µM. For the same molecule, the viability, T/C [1] was 34.5%, the viability, T/C [2] was 16.1% and the viability, T/C [3] was 9.69%. For the same molecule, the viability, T/C [4] was 5.33%, the viability, T/C [5] was 6.04% and the viability, T/C [6] was 5.15%. The viability, T/C [7] was 46.1%, the viability, T/C [8] was 22.2% and the viability, T/C [9] was 11.5%. The viability, T/C [10] was 6.17%, the viability, T/C [11] was 6.04% and the viability, T/C [12] was 5.5%. The viability, T/C [13] was 46.5%, the viability, T/C [14] was 30% and the viability, T/C [15] was 21%. It also gave a viability, T/C [16] of 10.3%, a viability, T/C [17] of 6.67% and a viability, T/C [18] of 5.76%. For the same molecule, the viability, T/C [19] was 35.3%, the viability, T/C [20] was 31.9% and the viability, T/C [21] was 24.9%. For the same molecule, the viability, T/C [22] was 17.1%, the viability, T/C [23] was 10.4% and the viability, T/C [24] was 5.91%. The viability, T/C [25] was 32.1%, the viability, T/C [26] was 28.4% and the viability, T/C [27] was 26.2%. For the same molecule, the viability, T/C [28] was 17.8%, the viability, T/C [29] was 13.2% and the viability, T/C [30] was 6.37%. It also gave a viability, T/C [31] of 27.9%, a viability, T/C [32] of 26% and a viability, T/C [33] of 24.6%. The viability, T/C [34] was 17.3%, the viability, T/C [35] was 12% and the viability, T/C [36] was 6.6%.

`C=CC(=O)N1CCN(c2nc(=O)n(-c3c(C)ccnc3C(C)C)c3nc(-c4c(O)cccc4F)c(F)cc23)C(C)C1` (stereo unspecified) + Cc1cnc(CNC(=O)c2c(=O)c3ccc(N4CCCN(C)CC4)nc3n3c2sc2ccccc23)cn1 was tested, and the IC50 (second compound 0.0316 µM) was greater than 10 µM, the IC50 (second compound 0.1 µM) was greater than 10 µM and the IC50 (second compound 0.316 µM) was greater than 10 µM. The IC50 (second compound 1 µM) was greater than 10 µM, the IC50 (second compound 3.16 µM) was less than 0.0316 µM and the IC50 (second compound 10 µM) was greater than 10 µM. For the same molecule, the viability, T/C [1] was 89.2%, the viability, T/C [2] was 106% and the viability, T/C [3] was 105%. For the same molecule, the viability, T/C [4] was 94.1%, the viability, T/C [5] was 109% and the viability, T/C [6] was 88.6%. For the same molecule, the viability, T/C [7] was 84.6%, the viability, T/C [8] was 91.3% and the viability, T/C [9] was 99%. It also gave a viability, T/C [10] of 83.7%, a viability, T/C [11] of 96.1% and a viability, T/C [12] of 76.1%. The viability, T/C [13] was 81.5%, the viability, T/C [14] was 58.7% and the viability, T/C [15] was 75.7%. For the same molecule, the viability, T/C [16] was 75.3%, the viability, T/C [17] was 75.8% and the viability, T/C [18] was 66.4%. For the same molecule, the viability, T/C [19] was 59.9%, the viability, T/C [20] was 62% and the viability, T/C [21] was 65.6%. It also gave a viability, T/C [22] of 66.7%, a viability, T/C [23] of 68.4% and a viability, T/C [24] of 66.1%. The viability, T/C [25] was 50.3%, the viability, T/C [26] was 47.4% and the viability, T/C [27] was 52.4%. The viability, T/C [28] was 53.7%, the viability, T/C [29] was 62.8% and the viability, T/C [30] was 46%. The viability, T/C [31] was 53.2%, the viability, T/C [32] was 46.5% and the viability, T/C [33] was 49.3%. For the same molecule, the viability, T/C [34] was 56.2%, the viability, T/C [35] was 61.3% and the viability, T/C [36] was 47.6%.

Work on `C=CC(=O)N1CCN(c2nc(=O)n(-c3c(C)ccnc3C(C)C)c3nc(-c4c(O)cccc4F)c(F)cc23)C(C)C1` (stereo unspecified) + Cc1[nH]c2ccc(F)cc2c1-c1nc2c3cccnc3c3ncccc3c2[nH]1 yielded an IC50 (second compound 0.0316 µM) greater than 10 µM, an IC50 (second compound 0.1 µM) greater than 10 µM and an IC50 (second compound 0.316 µM) greater than 10 µM. For the same molecule, the IC50 (second compound 1 µM) was greater than 10 µM, the IC50 (second compound 3.16 µM) was greater than 10 µM and the IC50 (second compound 10 µM) was greater than 10 µM. It also gave a viability, T/C [1] of 92.4%, a viability, T/C [2] of 87.1% and a viability, T/C [3] of 92.5%. It also gave a viability, T/C [4] of 85.2%, a viability, T/C [5] of 107% and a viability, T/C [6] of 94.9%. For the same molecule, the viability, T/C [7] was 95.7%, the viability, T/C [8] was 97% and the viability, T/C [9] was 101%. For the same molecule, the viability, T/C [10] was 78.5%, the viability, T/C [11] was 113% and the viability, T/C [12] was 92.8%. The viability, T/C [13] was 98.9%, the viability, T/C [14] was 110% and the viability, T/C [15] was 89.3%. The viability, T/C [16] was 91.3%, the viability, T/C [17] was 97.2% and the viability, T/C [18] was 88.7%. It also gave a viability, T/C [19] of 98.1%, a viability, T/C [20] of 88.4% and a viability, T/C [21] of 107%. The viability, T/C [22] was 87.6%, the viability, T/C [23] was 111% and the viability, T/C [24] was 96.3%. It also gave a viability, T/C [25] of 84%, a viability, T/C [26] of 96.2% and a viability, T/C [27] of 92%. For the same molecule, the viability, T/C [28] was 96%, the viability, T/C [29] was 108% and the viability, T/C [30] was 96%. For the same molecule, the viability, T/C [31] was 94%, the viability, T/C [32] was 99.7% and the viability, T/C [33] was 99.1%. For the same molecule, the viability, T/C [34] was 109%, the viability, T/C [35] was 102% and the viability, T/C [36] was 80.8%.
